Results from patent US10144742B2 (Millennium Pharmaceuticals, Inc., priority 2014, dated 2018).
Where two headings read alike, the source gives them in different places.

Assays:
PC3 cells = assay: PC3 growth inhibition (Cell-titer glo, 72 hours); assay type: cell-based; conditions: Homo sapiens, PC-3, PC3 cells, 72 hours, Cell-titer glo, read-out: Percent Inhibition (PC3 growth inhibition); for inhibition at 1 µM: compound concentration 1 μM; for inhibition at 1.667 µM: compound concentration 1.667 μM
In short: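 PC3 cells in RPMI1640 seeded overnight at 37 °C, 5% CO2, then exposed to compound diluted in AIM serum-free medium for 72 h. Viability by CellTiter-Glo luminescence vs DMSO controls; single-concentration % remaining viability (1 μM or 1.667 μM), or GI50/LD50 from curves.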

hNAMPT protein = hNAMPT protein (Homo sapiens (Human), UniProt P43490); assay: NAMPT enzyme assay (TR-FRET/HTRF, BodiPY ligand, anti 6His-Tb); assay type: binding; conditions: for IC50: read-out: IC50; for inhibition at 1 µM: read-out: Percent Inhibition
In short: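 TR-FRET binding assay in which His-tagged human NAMPT with anti-6His-Tb is displaced by compound from a BodiPY ligand, incubated 1 h at rt in the dark. Excitation was at 320 nm, with the 520/486 nm emission ratio read. IC50 was fitted from inhibition relative to DMSO controls.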

[1] = NAMPT inhibition at compound concentration 1 μM
[2] = NAMPT inhibition, IC50 range class

hNAMPT protein, sequence (P43490 whole entry): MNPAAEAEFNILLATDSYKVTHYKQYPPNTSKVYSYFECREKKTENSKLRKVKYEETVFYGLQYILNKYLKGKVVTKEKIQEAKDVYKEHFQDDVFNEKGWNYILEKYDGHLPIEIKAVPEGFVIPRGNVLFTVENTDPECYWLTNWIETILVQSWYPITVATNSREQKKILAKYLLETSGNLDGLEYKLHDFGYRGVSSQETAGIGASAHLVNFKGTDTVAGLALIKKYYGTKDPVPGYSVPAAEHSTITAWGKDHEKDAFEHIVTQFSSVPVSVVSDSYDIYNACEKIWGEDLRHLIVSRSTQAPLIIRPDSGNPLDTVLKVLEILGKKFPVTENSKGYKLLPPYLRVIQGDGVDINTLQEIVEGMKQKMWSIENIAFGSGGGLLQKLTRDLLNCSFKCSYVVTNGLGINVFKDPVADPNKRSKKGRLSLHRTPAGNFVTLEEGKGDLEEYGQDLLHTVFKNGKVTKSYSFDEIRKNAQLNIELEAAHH

SMILES | inhibition at 1 µM (PC3 cells) [%] | IC50 (hNAMPT protein; NAMPT IC50 range class) [nM] | inhibition at 1 µM (hNAMPT protein; compound concentration 1 μM) [%] | inhibition at 1.667 µM (PC3 cells) [%] | inhibition at 1 µM (hNAMPT protein) [%] | inhibition at 1 µM (hNAMPT protein; [1]) [%] | IC50 (hNAMPT protein; [2]) [nM] | inhibition at 1.852 µM (PC3 cells; compound concentration 1.852 μM) [%]
O=C(c1ccc2nc(-c3ccc(F)cc3)c(-c3ccc(F)cc3)nc2c1)N1CCn2ccnc2C1 [Compound I-56, [2,3-bis(4-fluorophenyl)quinoxalin-6-yl](5,6-dihydroimidazo[1,2-a]pyrazin-7(8H)-yl)methanone] | 104 | 2000 to 10000 | 33 | – | – | – | – | –
O=C(NCCCn1ccnc1)c1ccc2nc(-c3cccc(Cl)c3)c(-c3ccccc3)nc2c1 [Compound I-209, 2-(3-chlorophenyl)-N-[3-(1H-imidazol-1-yl)propyl]-3-phenylquinoxaline-6-carboxamide] | -7 | 100 to 500 | 74 | – | – | – | – | –
O=C(NCCCn1ccnc1)c1ccc2nc(C3=CCCCC3)c(-c3ccccc3)nc2c1 [Compound I-240, 2-(cyclohex-1-en-1-yl)-N-[3-(1H-imidazol-1-yl)propyl]-3-phenylquinoxaline-6-carboxamide] | -8 | 100 to 500 | 83 | – | – | – | – | –
O=C(NCCCc1ncc[nH]1)c1ccc2nc(-c3ccc(F)cc3)c(-c3cccc(C(F)(F)F)c3)nc2c1 [Compound I-328, 2-(4-fluorophenyl)-N-[3-(1H-imidazol-2-yl)propyl]-3-[3-(trifluoromethyl)phenyl]quinoxaline-6-carboxamide] | – | 100 to 500 | 84 | 3 | – | – | – | –
N#Cc1nc2ccc(C(=O)NCCCn3ccnc3)cc2nc1-c1ccccc1 [Compound I-142, 2-Cyano-N-[3-(1H-imidazol-1-yl)propyl]-3-phenylquinoxaline-6-carboxamide] | 95 | 2000 to 10000 | – | – | 24 | – | – | –
O=C(NCCCn1ccnc1)c1ccc2nc(-c3ccc4nccn4c3)c(-c3ccccc3)nc2c1 [Compound I-258, N-[3-(1H-imidazol-1-yl)propyl]-2-(imidazo[1,2-a]pyridin-6-yl)-3-phenylquinoxaline-6-carboxamide] | -8 | 100 to 500 | 67 | – | – | – | – | –
O=C(c1ccc2nc(-c3ccc(F)cc3)c(-c3ccc(F)cc3)nc2c1)N1CCC(c2ccccn2)C1 (stereo not drawn) [Compound I-163, [2,3-bis(4-fluorophenyl)quinoxalin-6-yl][3-(pyridin-2-yl)pyrrolidin-1-yl]methanone] | 86 | 2000 to 10000 | 17 | – | – | – | – | –
COc1cccc(-c2nc3cc(C(=O)NCCCc4ncc[nH]4)ccc3nc2-c2ccc(F)cc2)c1F [Compound I-398, 3-(2-fluoro-3-methoxyphenyl)-2-(4-fluorophenyl)-N-[3-(1H-imidazol-2-yl)propyl]quinoxaline-6-carboxamide] | – | – | – | 2 | – | 93 | < 100 | –
CC(C)Oc1nc2ccc(C(=O)NCCCc3ncc[nH]3)cc2nc1-c1cccs1 [Compound I-385, N-[3-(1H-imidazol-2-yl)propyl]-2-isopropoxy-3-(2-thienyl)quinoxaline-6-carboxamide] | – | < 100 | > 99 | 2 | – | – | – | –
NCc1ccc(-c2nc3cc(C(=O)NCCc4cccnc4)ccc3nc2-c2ccccc2)cc1 [Compound I-286, 3-[4-(Aminomethyl)phenyl]-2-phenyl-N-[2-(pyridin-3-yl)ethyl]quinoxaline-6-carboxamide] | 4 | 2000 to 10000 | – | – | 13 | – | – | –
O=C(NCCCc1ncc[nH]1)c1ccc2nc(-c3ccc(F)cc3)c(-c3cc(Cl)ccc3F)nc2c1 [Compound I-480, 3-(5-Chloro-2-fluoro-phenyl)-2-(4-fluorophenyl)-N-[3-(1H-imidazol-2-yl)propyl]quinoxaline-6-carboxamide] | – | – | – | 1 | – | 100 | < 100 | –
COc1cccc(-c2nc3cc(C(=O)NCCCc4cccnc4)ccc3nc2N2CCC(O)CC2)c1 [Compound I-46, 2-(4-hydroxypiperidin-1-yl)-3-(3-methoxyphenyl)-N-[3-(pyridin-3-yl)propyl]quinoxaline-6-carboxamide] | – | < 100 | 98 | – | – | – | – | 2
O=C(NCCCc1ncc[nH]1)c1ccc2nc(-c3ccc(F)cc3)c(-c3ccc4c(c3)OCO4)nc2c1 [Compound I-461, 3-(1,3-benzodioxol-5-yl)-2-(4-fluorophenyl)-N-[3-(1H-imidazol-2-yl)propyl]quinoxaline-6-carboxamide] | – | – | – | 2 | – | 86 | 100 to 500 | –
O=C(NCCCc1cn[nH]c1)c1ccc2nc(N3CCOCC3)c(-c3ccc(F)cc3)nc2c1 [Compound I-297, 3-(4-Fluorophenyl)-2-(morpholin-4-yl)-N-[3-(1H-pyrazol-4-yl)propyl]quinoxaline-6-carboxamide] | – | 100 to 500 | 88 | 2 | – | – | – | –
O=C(NCCCc1ncc[nH]1)c1ccc2nc(OCCc3ccccn3)c(-c3ccc(F)cc3)nc2c1 [Compound I-489, 3-(4-fluorophenyl)-N-[3-(1H-imidazol-2-yl)propyl]-2-[2-(pyridin-2-yl)ethoxy]quinoxaline-6-carboxamide] | – | – | – | 2 | – | > 99 | < 100 | –
O=C(NCCCc1ncc[nH]1)c1ccc2nc(-c3ccc(F)cc3)c(-c3ccc(F)c(F)c3)nc2c1 [Compound I-474, 3-(3,4-difluorophenyl)-2-(4-fluorophenyl)-N-[3-(1H-imidazol-2-yl)propyl]quinoxaline-6-carboxamide] | – | – | – | 3 | – | 95 | 100 to 500 | –
O=C(NCCCc1ncc[nH]1)c1ccc2nc(N3CCC(O)CC3)c(-c3ccc(F)cc3)nc2c1 [Compound I-213, 3-(4-fluorophenyl)-2-(4-hydroxypiperidin-1-yl)-N-[3-(1H-imidazol-2-yl)propyl]quinoxaline-6-carboxamide] | – | < 100 | 99 | 2 | – | – | – | –
O=C(NCCCc1ncc[nH]1)c1ccc2nc(Cl)c(-c3ccc(F)cc3)nc2c1 [Compound I-211, 2-Chloro-3-(4-fluorophenyl)-N-[3-(1H-imidazol-2-yl)propyl]quinoxaline-6-carboxamide] | – | 100 to 500 | 79 | > 99 | – | – | – | –
O=C(NCCCn1ccnc1)c1ccc2nc(-c3ccccc3)c(N3CCn4ccnc4C3)nc2c1 [Compound I-283, 3-(5,6-dihydroimidazo[1,2-a]pyrazin-7(8H)-yl)-N-[3-(1H-imidazol-1-yl)propyl]-2-phenylquinoxaline-6-carboxamide] | 100 | 2000 to 10000 | 12 | – | – | – | – | –
CN1CCC(COc2nc3ccc(C(=O)NCCCc4ncc[nH]4)cc3nc2-c2ccc(F)cc2)CC1 [Compound I-327, 3-(4-fluorophenyl)-N-[3-(1H-imidazol-2-yl)propyl]-2-[(1-methylpiperidin-4-yl)methoxy]quinoxaline-6-carboxamide] | – | < 100 | > 99 | 2 | – | – | – | –
CC(C)Oc1nc2ccc(C(=O)NCCCc3nnc[nH]3)cc2nc1-c1ccc(F)cc1 [Compound I-310, 3-(4-fluorophenyl)-2-isopropoxy-N-[3-(4H-1,2,4-triazol-3-yl)propyl]quinoxaline-6-carboxamide] | – | 500 to 1000 | 62 | 4 | – | – | – | –
